According to PubChem BioAssay AID256 (DTP/NCI, 2004):
Where “and” joins values, the source holds several entries; their conditions need not be identical. Equal entries are not always repeated. Toxic doses and inconclusive results are not listed. How the source made its calls: active means survival T/C of 150% or more; inactive means T/C below 125% in these data.

Test system: CD2F1 mice, L1210 leukemia ip, survival T/C
Experiment: NCI In Vivo Anticancer Drug Screen. Data for tumor model L1210 Leukemia (intraperitoneal) in CD2F1 (CDF1) mice
Details: higher = longer survival
Method: The antitumor activity of compounds was measured in mice bearing transplantable tumors. Survival or tumor size were measured and the results are expressed as the measurement made in the treated group (T) divided by the measurement made in the vehicle treated control group (C). The tumor model used in this assay is L1210 Leukemia (intraperitoneal) in CD2F1 (CDF1) mice

[1] = endpoint: mean survival time, dose: 25.0 mg/kg/injection, schedule: Q01DX009 (ip), vehicle: saline with Tween-80
[2] = endpoint: mean survival time, dose: 25.0 mg/kg/injection, schedule: Q04DX003 (ip), vehicle: saline with Tween-80
[3] = endpoint: mean survival time, dose: 50.0 mg/kg/injection, schedule: Q01DX009 (ip), vehicle: saline with Tween-80
[4] = endpoint: mean survival time, dose: 50.0 mg/kg/injection, schedule: Q04DX003 (ip), vehicle: saline with Tween-80
[5] = endpoint: mean survival time, dose: 100.0 mg/kg/injection, schedule: Q01DX009 (ip), vehicle: saline with Tween-80
[6] = endpoint: mean survival time, dose: 100.0 mg/kg/injection, schedule: Q04DX003 (ip), vehicle: saline with Tween-80
[7] = endpoint: mean survival time, dose: 100.0 mg/kg/injection, schedule: Q01DX001 (ip), vehicle: saline with Tween-80
[8] = endpoint: mean survival time, dose: 200.0 mg/kg/injection, schedule: Q01DX001 (ip), vehicle: saline with Tween-80
[9] = endpoint: mean survival time, dose: 400.0 mg/kg/injection, schedule: Q01DX001 (ip), vehicle: saline with Tween-80
[10] = endpoint: mean survival time, dose: 100.0 mg/kg/injection, schedule: Q04DX003 (ip), vehicle: Klucel (hydroxypropylcellulose) (HPC)
[11] = endpoint: mean survival time, dose: 200.0 mg/kg/injection, schedule: Q04DX003 (ip), vehicle: Klucel (hydroxypropylcellulose) (HPC)
[12] = endpoint: mean survival time, dose: 400.0 mg/kg/injection, schedule: Q04DX003 (ip), vehicle: Klucel (hydroxypropylcellulose) (HPC)
[13] = endpoint: mean survival time, dose: 75.0 mg/kg/injection, schedule: Q01DX001 (ip), vehicle: other
[14] = endpoint: mean survival time, dose: 150.0 mg/kg/injection, schedule: Q01DX001 (ip), vehicle: other
[15] = endpoint: mean survival time, dose: 300.0 mg/kg/injection, schedule: Q01DX001 (ip), vehicle: other
[16] = endpoint: mean survival time, dose: 200.0 mg/kg/injection, schedule: Q01DX009 (ip), vehicle: saline with Tween-80
[17] = endpoint: mean survival time, dose: 5.0 mg/kg/injection, schedule: Q01DX009 (ip), vehicle: saline sonified
[18] = endpoint: mean survival time, dose: 12.5 mg/kg/injection, schedule: Q04DX003 (ip), vehicle: saline with Tween-80
[19] = endpoint: mean survival time, dose: 400.0 mg/kg/injection, schedule: Q01DX009 (ip), vehicle: saline with Tween-80

Measured: T/C

CCCCCCCCOC(=O)c1cc([N+](=O)[O-])c(Cl)c([N+](=O)[O-])c1
inactive: [1] 106 % of control | [2] 103 % of control | [3] 101 % of control | [4] 109 % of control | [5] 87 % of control | [6] 91 % of control and 98 % of control

S=C(N/N=C1\C=Cc2ccccc2C1)N/N=C1\C=Cc2ccccc2C1
inactive: endpoint: mean survival time, dose: 50.0 mg/kg/injection, schedule: Q04DX003 (ip), vehicle: saline 87 % of control | endpoint: mean survival time, dose: 100.0 mg/kg/injection, schedule: Q04DX003 (ip), vehicle: saline 93 % of control | endpoint: mean survival time, dose: 200.0 mg/kg/injection, schedule: Q04DX003 (ip), vehicle: saline 93 % of control

SCc1ccccc1
inactive: [7] 110 % of control | [8] 98 % of control | [9] 105 % of control

O=C1CC(c2ccccc2)=NN1c1ccccc1
inactive: [10] 98 % of control | [11] 95 % of control | [12] 101 % of control

O=C1CSC(=S)N1/N=C/c1ccc(F)cc1
inactive: [13] 100 % of control | [14] 102 % of control | [15] 98 % of control

COC(=O)C1CCC[N+](C)(C)C1 (stereo not given)
inactive: endpoint: mean survival time, dose: 25.0 mg/kg/injection, schedule: Q01DX009 (ip), vehicle: saline 100 % of control | endpoint: mean survival time, dose: 50.0 mg/kg/injection, schedule: Q01DX009 (ip), vehicle: saline 93 % of control

CN(C)C1c2ccccc2-c2ccc(NC(=O)C(F)(F)F)cc21 (stereo not given)
inactive: endpoint: mean survival time, dose: 50.0 mg/kg/injection, schedule: Q01DX001 (ip), vehicle: carboxymethylcellulose (CMC) 107 % of control | endpoint: mean survival time, dose: 100.0 mg/kg/injection, schedule: Q01DX001 (ip), vehicle: carboxymethylcellulose (CMC) 92 % of control | endpoint: mean survival time, dose: 200.0 mg/kg/injection, schedule: Q01DX001 (ip), vehicle: carboxymethylcellulose (CMC) 95 % of control | endpoint: mean survival time, dose: 400.0 mg/kg/injection, schedule: Q01DX001 (ip), vehicle: carboxymethylcellulose (CMC) 113 % of control

COc1cc2c(c(OC)c1OC)-c1c(cc3c(c1OC)OCO3)CC(C)C(C)(O)C2OC(=O)c1ccccc1 (stereo not given)
inactive: endpoint: median survival time, dose: 25.0 mg/kg/injection, schedule: Q01DX009 (ip), vehicle: saline + Tween-80 + alcohol 100 % of control | endpoint: median survival time, dose: 50.0 mg/kg/injection, schedule: Q01DX009 (ip), vehicle: saline + Tween-80 + alcohol 102 % of control | endpoint: median survival time, dose: 100.0 mg/kg/injection, schedule: Q01DX009 (ip), vehicle: saline + Tween-80 + alcohol 107 % of control | endpoint: median survival time, dose: 200.0 mg/kg/injection, schedule: Q01DX009 (ip), vehicle: saline + Tween-80 + alcohol 102 % of control | endpoint: median survival time, dose: 400.0 mg/kg/injection, schedule: Q01DX009 (ip), vehicle: saline + Tween-80 + alcohol 98 % of control

Cc1ccc(NC(=O)Nc2ccc(S(N)(=O)=O)cc2)cc1C
inactive: [3] 96 % of control | [5] 87 % of control | [16] 87 % of control

Clc1ccc(C[P+](c2ccccc2)(c2ccccc2)c2ccccc2)c(Cl)c1
inactive: [17] 103 % of control | endpoint: mean survival time, dose: 5.0 mg/kg/injection, schedule: Q04DX003 (ip), vehicle: saline with Tween-80 92 % of control | endpoint: mean survival time, dose: 10.0 mg/kg/injection, schedule: Q04DX003 (ip), vehicle: saline with Tween-80 96 % of control | [18] 100 % of control | endpoint: mean survival time, dose: 20.0 mg/kg/injection, schedule: Q04DX003 (ip), vehicle: saline with Tween-80 108 % of control | [2] 93 % of control

C=Cn1ccnc1
inactive: endpoint: mean survival time, dose: 25.0 mg/kg/injection, schedule: Q01DX001 (ip), vehicle: saline with Tween-80 103 % of control | endpoint: mean survival time, dose: 50.0 mg/kg/injection, schedule: Q01DX001 (ip), vehicle: saline with Tween-80 100 % of control | [7] 114 % of control and 118 % of control | [8] 97 % of control | [9] 101 % of control

CC(=O)Nc1ccc(C(=O)CCl)cc1
inactive: [6] 90 % of control

O=C(O)c1ccccc1C(=O)Nc1ccccc1C(F)(F)F
inactive: [5] 104 % of control | [6] 96 % of control | [16] 106 % of control | endpoint: mean survival time, dose: 200.0 mg/kg/injection, schedule: Q04DX003 (ip), vehicle: saline with Tween-80 102 % of control | [19] 95 % of control | endpoint: mean survival time, dose: 400.0 mg/kg/injection, schedule: Q04DX003 (ip), vehicle: saline with Tween-80 105 % of control

CC1(CBr)Oc2ccccc2O1
inactive: [10] 97 % of control | [11] 88 % of control | [12] 94 % of control

Cc1ccc(S(=O)(=O)OCC2CC3CCC2C3)cc1 (stereo not given)
inactive: endpoint: mean survival time, dose: 100.0 mg/kg/injection, schedule: Q01DX009 (ip), vehicle: other 102 % of control | endpoint: mean survival time, dose: 200.0 mg/kg/injection, schedule: Q01DX009 (ip), vehicle: other 102 % of control | endpoint: mean survival time, dose: 400.0 mg/kg/injection, schedule: Q01DX009 (ip), vehicle: other 93 % of control

Nc1ccc(Cn2ccc3c4c(N)nc(N)nc4ccc32)cc1
active: endpoint: median survival time, dose: 20.0 mg/kg/injection, schedule: Q01DX009 (ip), vehicle: saline with Tween-80 152 % of control
inactive: endpoint: mean survival time, dose: 1.25 mg/kg/injection, schedule: Q01DX005 (ip), vehicle: saline with Tween-80 101 % of control | endpoint: mean survival time, dose: 1.25 mg/kg/injection, schedule: Q01DX009 (ip), vehicle: saline with Tween-80 101 % of control and 102 % of control and 108 % of control | endpoint: mean survival time, dose: 2.5 mg/kg/injection, schedule: Q01DX005 (ip), vehicle: saline with Tween-80 111 % of control | endpoint: mean survival time, dose: 5.0 mg/kg/injection, schedule: Q01DX005 (ip), vehicle: saline with Tween-80 110 % of control | endpoint: mean survival time, dose: 10.0 mg/kg/injection, schedule: Q01DX005 (ip), vehicle: saline with Tween-80 123 % of control | endpoint: mean survival time, dose: 20.0 mg/kg/injection, schedule: Q01DX005 (ip), vehicle: saline with Tween-80 106 % of control | endpoint: mean survival time, dose: 30.0 mg/kg/injection, schedule: Q01DX005 (ip), vehicle: saline with Tween-80 117 % of control | endpoint: median survival time, dose: 1.25 mg/kg/injection, schedule: Q01DX009 (ip), vehicle: saline with Tween-80 103 % of control and 108 % of control | endpoint: median survival time, dose: 2.5 mg/kg/injection, schedule: Q01DX009 (ip), vehicle: saline with Tween-80 118 % of control and 103 % of control | endpoint: median survival time, dose: 5.0 mg/kg/injection, schedule: Q01DX009 (ip), vehicle: saline with Tween-80 124 % of control and 103 % of control | endpoint: median survival time, dose: 10.0 mg/kg/injection, schedule: Q01DX009 (ip), vehicle: saline with Tween-80 113 % of control

CN(C)c1ccc(/C=N/NC(=O)NN)cc1
inactive: endpoint: mean survival time, dose: 12.5 mg/kg/injection, schedule: Q01DX009 (ip), vehicle: saline with Tween-80 98 % of control | [18] 98 % of control | [1] 100 % of control | [2] 98 % of control | [3] 98 % of control | [4] 104 % of control

O=P(N1CC1)(N1CC1)N1CC1
inactive: endpoint: mean survival time, dose: 2.0 mg/kg/injection, schedule: Q03DX003 (ip), vehicle: saline 110 % of control | endpoint: mean survival time, dose: 16.0 mg/kg/injection, schedule: Q01DX009 (ip), vehicle: saline 96 % of control

CN(C)C(=O)N(c1ccccc1)c1ccccc1
inactive: endpoint: mean survival time, dose: 100.0 mg/kg/injection, schedule: Q04DX002 (ip), vehicle: saline with Tween-80 98 % of control | endpoint: mean survival time, dose: 200.0 mg/kg/injection, schedule: Q04DX002 (ip), vehicle: saline with Tween-80 90 % of control

CN(C)CC#N
inactive: [17] 97 % of control | endpoint: mean survival time, dose: 5.0 mg/kg/injection, schedule: Q04DX003 (ip), vehicle: saline 103 % of control | endpoint: mean survival time, dose: 10.0 mg/kg/injection, schedule: Q01DX009 (ip), vehicle: saline sonified 97 % of control | endpoint: mean survival time, dose: 10.0 mg/kg/injection, schedule: Q04DX003 (ip), vehicle: saline 97 % of control | endpoint: mean survival time, dose: 20.0 mg/kg/injection, schedule: Q01DX009 (ip), vehicle: saline sonified 98 % of control | endpoint: mean survival time, dose: 20.0 mg/kg/injection, schedule: Q04DX003 (ip), vehicle: saline 95 % of control

CCCCCCCC/C=C\CCCCCCCC(=O)NCCCN(C)CCCNC(=O)CCCCCCC/C=C/CCCCCCCC
inactive: [13] 100 % of control | [14] 104 % of control | [15] 100 % of control

C=C(Br)CNC(=O)NCCN1CCOCC1
inactive: [5] 97 % of control | [16] 92 % of control | [19] 89 % of control
